Test results published in US6949682B2, “Cinnamaldehyde derivatives inhibiting growth of tumor cell and regulating cell cycle, preparations and pharmaceutical compositions thereof” (Korea Research Institute of Bioscience and Biotechnology, priority 2003, dated 2005).

Columns and labels:
[1] = system: HCT116 colon cancer cell; test: Cell cycle distribution (Experimental Example 2), HCT116; assay type: cell-based, human; conditions: for Amount of cell (%) G0-G1 / Amount of cell (%) G2-M / Amount of cell (%) S: HCT116, 1 μM, 48 hours; for Holding of cancer cell in stage G2/M (in words): HCT116 and SW620, 1 μM, summary of table 3
Experimental: (§1) SW620 or HCT116 as colon cancer cell was inoculated in 100 mm plate to the amount of 2×10^6 cells. Then, cinnamaldehyde derivative of the present invention (compound 16 or compound 35) was added to the plate in the concentration of 1 μM. Thereafter, the colon cancer cell was incubated for 48 hours. Trypsin was added to the plate, to separate the colon cancer cell from the plate. And 5 ml of PBS (phosphate buffer solution) was added to the plate, to prepare the cell mixture. The cell mixture was centrifuged at 1,500 rpm for 5 min for two times, to remove trypsin from the mixture. The residue was washed with PBS for two times, thus the resulting supernatant was discarded. 1 ml of PBS and 3˜5 ml of cool ethanol(70%) was added to the resulting residue. The cell was fixed by being positioned at −20° C. for 12 hours. The fixed cell was centrifuged at 1,500 rpm for 5 min and washed with the cool PBS for two times to remove residual ethanol. RNase(10 μg/ml) was added to the fixed cell, to remove RNA. And DNA of the fixed cell was dyed with PI(propidium iodide, 50 μg/ml). After the fixed cell was positioned at 37° C. for 30 min, cell cycles of 20,000 cells were measured by using Becton-Dickinson FACS caliber (San Jose, Calif., USA).
(§2) For control group, the same procedure was accomplished except that DMSO was used in place of the cinnamaldehyde derivative.

[2] = system: SW620 colon cancer cell; test: Growth inhibition of SW620 colon cancer cell (GI50); assay type: cell-based, human; conditions: Homo sapiens, SW-620; concentration at which growth of SW620 colon cancer cell was inhibited to the 50%
Experimental: (§3) Colon cancer cell of human SW620(ATCC) or HCT116 (ATCC) was transferred to T25 flask(culture 7.5 ml) by RPMI1640 (Gibco/BR) medium or DMEM medium (Gibco/BR) containing 10% FBS (fetal bovine serum), respectively. Thereafter the cell was incubated for 12 hours at 37° C. in incubator. After the cell was incubated for 12 hours, 7.5 μl of DMSO was added to a culture used as control group, for the final concentration to be 0.1%. In order to use in experiment, samples of various concentrations were prepared by dissolving the cinnamaldehyde derivatives of the present invention in DMSO. 7.5 μl of the prepared samples was added to a culture used as experimental group. Cell of control or experimental group was incubated for 48 hours.
(§4) HCT116 GI50 (μM) and SW620 GI50 (μM) mean to be the concentrations at which growth of HCT116 and SW620 colon cancer cell was inhibited to the 50%, respectively.

[3] = system: SW620 colon cancer cell; test: Cell cycle analysis (Experimental Example 1), SW620; assay type: cell-based, human; conditions: SW620, 1 μM, 48 hours, percentage of cells in G2/M
Experimental: as §3
(§5) For cell cycle analysis, incubated cell was removed from medium. Thereafter the incubated cell was separated from the flask by trypsin. Thus the cell was centrifuged at 300 g for 5 min. The cell was washed with phosphate buffer solution (PBS) to remove the residue medium from the cell. 3 ml of ethanol (70%) was added to the cell. The cell was fixed by being positioned at −20° C. for 12 hours. The fixed cell was centrifuged at 300 g for 3 min and washed with the cold PBS for two times to remove residual ethanol. The cell solution prepared by adding 500 μl of PBS to the cell was well mixed to produce the homogeneous state. 100 μg/ml RNase A 50 μl was added to the cell solution, thereafter the resulting cell solution was positioned at 37° C. for 30 min. The chromosomal DNA was stained by further adding 1 mg/ml propidium iodide (soluble in PBS) thereto.
(§6) Distribution of cell cycle of 20,000 stained cells were measured by using Becton-Dickinson FACS caliber (San Jose, Calif., USA).

[4] = system: SW620 colon cancer cell; test: Cell cycle distribution (Experimental Example 2), SW620; assay type: cell-based, human; conditions: SW620, 1 μM, 48 hours
Experimental: as §1, §2

[5] = system: HCT116 colon cancer cell; test: Growth inhibition of HCT116 colon cancer cell (GI50); assay type: cell-based, human; conditions: Homo sapiens, HCT-116; concentration at which growth of HCT116 colon cancer cell was inhibited to the 50%
Experimental: as §3, §4

[6] = system: HCT116 colon cancer cell; test: Cell cycle analysis (Experimental Example 1), HCT116; assay type: cell-based, human; conditions: HCT116, 1 μM, 48 hours, percentage of cells in G2/M
Experimental: as §3, §5, §6

SMILES | melting point [°C] | GI50 [2] [µM] | GI50 [5] [µM] | Amount of cell (%) G0-G1 [1] [%] | Amount of cell (%) G2-M [1] [%] | Amount of cell (%) S [1] [%] | Holding of cancer cell in stage G2/M (in words) [1] | G2/M at 1 μM(%) SW620 [3] [%] | Amount of cell (%) G0-G1 [4] [%] | Amount of cell (%) G2-M [4] [%] | Amount of cell (%) S [4] [%] | G2/M at 1 μM(%) HCT116 [6] [%]
O=CC(=Cc1ccc(OC(=O)c2ccccc2F)cc1)C(C=O)=Cc1ccc(OC(=O)c2ccccc2F)cc1 [Compound 33, 2,3-bis-(4-(2-fluorobenzoyloxy)benzylidene)succinaldehyde] | 197 to 199 | 5.57 | 7.43 | – | – | – | – | 71 | – | – | – | 72
O=CC(=Cc1ccccc1OCc1ccc([N+](=O)[O-])cc1)C(C=O)=Cc1ccccc1OCc1ccc([N+](=O)[O-])cc1 [Compound 19, 2,3-bis-(2-(4-nitrobenzyloxy)-benzylidene)succinaldehyde] | 116 to 117 | 7.09 | 5.19 | – | – | – | – | 39 | – | – | – | 32
O=CC(=Cc1cccc(OCc2ccccc2)c1)C(C=O)=Cc1cccc(OCc2ccccc2)c1 [Compound 22, 2,3-bis-(3-benzyloxy-benzylidene)succinaldehyde] | 126 to 127 | 3.58 | 7.59 | – | – | – | – | 65 | – | – | – | 68
O=CC(=Cc1cccc(Cl)c1)C(C=O)=Cc1cccc(Cl)c1 [Compound 6, 2,3-bis-(3-chlorobenzylidene)succinaldehyde] | 107 to 108 | 90.6 | 3.62 | – | – | – | – | 66 | – | – | – | 60
O=CC(=C\c1ccccc1)/C(C=O)=C/c1ccccc1 [Compound 1, 2,3-bis-benzylidenesuccinaldehyde] | 150 to 151 | 1.52 | 8.39 | – | – | – | – | 45 | – | – | – | 42
O=CC(=Cc1ccccc1OCc1ccc(Cl)cc1)C(C=O)=Cc1ccccc1OCc1ccc(Cl)cc1 [Compound 17, 2,3-bis-(2-(4-chlorobenzyloxy)-benzylidene)succinaldehyde] | 186 to 187 | 0.54 | 0.84 | – | – | – | – | 76 | – | – | – | 71
CC(C)Oc1ccccc1C=C(C=O)C(C=O)=Cc1ccccc1OC(C)C [Compound 15, 2,3-bis-(2-isopropyloxy-benzylidene)succinaldehyde] | 109 to 110 | 5.34 | 5.34 | – | – | – | – | 69 | – | – | – | 70

Continued by falling GI50 [2], values first:

melting point [°C] | GI50 [2] [µM] | GI50 [5] [µM] | SMILES | Amount of cell (%) G0-G1 [1] [%] | Amount of cell (%) G2-M [1] [%] | Amount of cell (%) S [1] [%] | Holding of cancer cell in stage G2/M (in words) [1] | G2/M at 1 μM(%) SW620 [3] [%] | Amount of cell (%) G0-G1 [4] [%] | Amount of cell (%) G2-M [4] [%] | Amount of cell (%) S [4] [%] | G2/M at 1 μM(%) HCT116 [6] [%]
223 to 225 | 16.7 | 30.4 | O=CC(=Cc1ccc(OC(=O)c2ccc(Br)cc2)cc1)C(C=O)=Cc1ccc(OC(=O)c2ccc(Br)cc2)cc1 [Compound 34, 2,3-bis-(4-(4-bromobenzoyloxy)benzylidene)succinaldehyde] | – | – | – | – | 62 | – | – | – | 60
193 to 194 | 6.3 | 7.5 | O=CC(=Cc1cccc(OCc2ccc(Cl)cc2)c1)C(C=O)=Cc1cccc(OCc2ccc(Cl)cc2)c1 [Compound 36, 2,3-bis-(3-(4-chlorobenzyloxy)-benzylidene)succinaldehyde] | – | – | – | – | 42 | – | – | – | 41
117 to 118 | 2.64 | 5.28 | C=CCOc1ccccc1C=C(C=O)C(C=O)=Cc1ccccc1OCC=C [Compound 14, 2,3-bis-(2-allyloxy-benzylidene)succinaldehyde] | – | – | – | – | 76 | – | – | – | 72
95 to 96 | 2.28 | 0.62 | CCCOc1ccc(C=C(C=O)C(C=O)=Cc2ccc(OCCC)c(OC)c2)cc1OC [Compound 23, 2,3-bis-(4-propyloxy-3-methoxybenzylidene)succinaldehyde] | – | – | – | – | 56 | – | – | – | 50
218 to 220 | 0.72 | 5.23 | CN1CCN(c2ccccc2/C=C(C=O)/C(C=O)=C/c2ccccc2N2CCN(C)CC2)CC1 [Compound 35, 2,3-bis-(2-(N-methylpiperazine)benzylidene)succinaldehyde] | 15.52 | 52.11 | 32.37 | held a cancer cell in the stage G2/M | 79 | 8.74 | 78.53 | 12.73 | 52
120 to 121 | 0.63 | 1.41 | O=CC(=Cc1ccccc1OCc1ccccc1)C(C=O)=Cc1ccccc1OCc1ccccc1 [Compound 16, 2,3-bis-(2-benzyloxy-benzylidene)succinaldehyde] | 22.36 | 43.29 | 34.35 | held a cancer cell in the stage G2/M | 80 | 6.64 | 80.21 | 13.15 | 43
116 to 117 | 0.61 | 4.23 | CC(C)Oc1cccc(C=C(C=O)C(C=O)=Cc2cccc(OC(C)C)c2)c1 [Compound 21, 2,3-bis-(3-isopropyloxy-benzylidene)succinaldehyde] | – | – | – | – | 74 | – | – | – | 75
